Measured values from patent publication US9862716B2, “TRKA kinase inhibitors, compositions and methods thereof” (Merck Sharp & Dohme Corp., priority 2014, dated 2018).

biological target: T1, human TrkA receptor (Homo sapiens, UniProt P04629); assay: DiscoverX PathHunter TrkA functional assay (NGF-stimulated U2OS cells); format: cell-based; conditions: U2OS cells expressing human TrkA-PK, Shc1-EA and p75NTR; compound 1 h, then NGF at ~80% of maximal response for 3 h; luminescence
T1 construct: host or cells: U2OS cells (PathHunter cell line)
T1 sequence (P04629 33-796): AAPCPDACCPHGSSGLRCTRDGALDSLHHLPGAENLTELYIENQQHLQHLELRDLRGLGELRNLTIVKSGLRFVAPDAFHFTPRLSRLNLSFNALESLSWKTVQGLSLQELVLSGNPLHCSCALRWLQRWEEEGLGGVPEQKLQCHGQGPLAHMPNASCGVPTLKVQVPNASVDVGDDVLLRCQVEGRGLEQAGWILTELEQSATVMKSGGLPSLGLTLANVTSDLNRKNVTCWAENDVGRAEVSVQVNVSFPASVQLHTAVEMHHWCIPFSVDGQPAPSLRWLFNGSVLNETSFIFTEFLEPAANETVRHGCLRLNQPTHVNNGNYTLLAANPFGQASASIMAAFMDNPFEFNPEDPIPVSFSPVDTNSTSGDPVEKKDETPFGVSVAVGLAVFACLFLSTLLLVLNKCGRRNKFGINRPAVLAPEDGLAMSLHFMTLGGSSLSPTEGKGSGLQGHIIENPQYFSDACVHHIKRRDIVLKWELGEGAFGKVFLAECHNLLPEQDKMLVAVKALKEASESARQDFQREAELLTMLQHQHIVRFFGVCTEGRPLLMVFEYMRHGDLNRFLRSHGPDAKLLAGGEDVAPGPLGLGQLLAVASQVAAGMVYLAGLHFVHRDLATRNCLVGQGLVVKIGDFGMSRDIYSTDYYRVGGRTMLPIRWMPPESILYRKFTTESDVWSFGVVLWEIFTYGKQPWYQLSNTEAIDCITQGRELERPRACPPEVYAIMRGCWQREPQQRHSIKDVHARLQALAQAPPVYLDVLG

| IC50 | SMILES |
| --- | --- |
| 1.6 nM | Cn1ccc(-c2cc(C(=O)Nc3c(-c4ccccc4)nc4cc(C(O)C(F)(F)F)ccn34)ccc2C(F)(F)F)n1 (single isomer, unassigned) [Compound 63, (R or S)-3-(1-methyl-1H-pyrazol-3-yl)-N-[2-phenyl-7-(2,2,2-trifluoro-1-hydroxyethyl)imidazo[1,2-a]pyridin-3-yl]-4-(trifluoromethyl) benzamide] |
| 550 nM | O=C(Nc1c(-c2ccccc2)nc2ccccn12)c1ccc(OC(F)(F)F)cc1 [Compound 1, N-(2-phenylimidazo[1,2-a]pyridin-3-yl)-4-(trifluoromethoxy) benzamide] |
| 14 nM | Cc1nc(-c2nc3ccccn3c2NC(=O)c2ccc(C(F)(F)F)c(-c3ccn(C)n3)c2)cs1 [Compound 19, 3-(1-methyl-1H-pyrazol-3-yl)-N-[2-(2-methyl-1,3-thiazol-4-yl)imidazo[1,2-a]pyridin-3-yl]-4-(trifluoromethyl) benzamide] |
| 11 nM | O=C(O)c1ccc2[nH]c(-c3ccccc3)c(NC(=O)c3cc(-c4ncccn4)c(C(F)(F)F)cc3F)c2c1 [Compound 91, 3-({[2-fluoro-5-pyrimidin-2-yl-4-(trifluoromethyl)phenyl]carbonyl}amino)-2-phenyl-1H-indole-5-carboxylic acid] |
| 1.1 nM | CC(O)c1ccn2c(NC(=O)c3cc(-c4ncccn4)c(C(F)(F)F)cc3F)c(-c3ccccc3)nc2c1 (single isomer, unassigned) [Compound 57, (R or S)-2-fluoro-N-[7-(1-hydroxyethyl)-2-phenylimidazo[1,2-a]pyridin-3-yl]-5-pyrimidin-2-yl-4-(trifluoromethyl) benzamide] |
| 0.94 nM | Cn1ccc(-c2cc(C(=O)Nc3c(-c4ccccc4)nn4ccc(C(C)(C)O)cc34)c(F)cc2C(F)(F)F)n1 [Compound 103, 2-fluoro-N-[5-(1-hydroxy-1-methylethyl)-2-phenylpyrazolo[1,5-a]pyridin-3-yl]-5-(1-methyl-1H-pyrazol-3-yl)-4-(trifluoromethyl) benzamide] |
| 1.8 nM | Cn1ccc(-c2cc(C(=O)Nc3c(-c4ccccc4)nc4cc(C(C)(C)O)ccn34)ccc2C(F)(F)F)n1 [Compound 27, N-[7-(1-hydroxy-1-methylethyl)-2-phenylimidazo[1,2-a]pyridin-3-yl]-3-(1-methyl-1H-pyrazol-3-yl)-4-(trifluoromethyl) benzamide] |
| 0.51 nM | Cn1ccc(-c2cc(C(=O)Nc3c(-c4ccccc4)nc4cc(C(O)CO)ccn34)ccc2C(F)(F)F)n1 (single isomer, unassigned) [Compound 49, (R or S)-N-[7-(1,2-dihydroxyethyl)-2-phenylimidazo[1,2-a]pyridin-3-yl]-3-(1-methyl-1H-pyrazol-3-yl)-4-(trifluoromethyl) benzamide] |
| 556 nM | Cc1nc(-c2nc3ccccn3c2NC(=O)c2ccc(C(F)(F)F)c(-c3ccn(C)n3)c2)co1 [Compound 16, N-[2-(2-methyl-1,3-oxazol-4-yl)imidazo[1,2-a]pyridin-3-yl]-3-(1-methyl-1H-pyrazol-3-yl)-4-(trifluoromethyl) benzamide] |
| 8.2 nM | CC(=O)NCc1ccn2c(NC(=O)c3ccc(C(F)(F)F)c(-c4ccn(C)n4)c3)c(-c3ccccc3)nc2c1 [Compound 79, N-{7-[(acetylamino)methyl]-2-phenylimidazo[1,2-a]pyridin-3-yl}-3-(1-methyl-1H-pyrazol-3-yl)-4-(trifluoromethyl) benzamide] |
| 1.7 nM | CC(O)c1ccc2[nH]c(-c3ccccc3)c(NC(=O)c3cc(-c4ccn(C)n4)c(C(F)(F)F)cc3F)c2c1 (single isomer, unassigned) [Compound 113, (R or S)-2-fluoro-N-[5-(1-hydroxyethyl)-2-phenyl-1H-indol-3-yl]-5-(1-methyl-1H-pyrazol-3-yl)-4-(trifluoromethyl) benzamide] |
| 3.8 nM | Cn1ccc(-c2cc(C(=O)Nc3c(-c4ccccc4)nc4cc(N5CCNCC5)ccn34)ccc2C(F)(F)F)n1 [Compound 90, 3-(1-methyl-1H-pyrazol-3-yl)-N-(2-phenyl-7-piperazin-1-ylimidazo[1,2-a]pyridin-3-yl)-4-(trifluoromethyl) benzamide] |
| 2.6 nM | N#Cc1ccc2[nH]c(-c3ccccc3)c(NC(=O)c3cc(-c4ncccn4)c(C(F)(F)F)cc3F)c2c1 [Compound 86, N-(5-cyano-2-phenyl-1H-indol-3-yl)-2-fluoro-5-pyrimidin-2-yl-4-(trifluoromethyl) benzamide] |
| 4.7 nM | Cc1cc(C(F)(F)F)c(-c2ccn(C)n2)cc1C(=O)Nc1c(-c2ccccc2)nc2cc([C@@H](C)O)ccn12 [Compound 93, N-{7-[(1R)-1-hydroxyethyl]-2-phenylimidazo[1,2-a]pyridin-3-yl}-2-methyl-5-(1-methyl-1H-pyrazol-3-yl)-4-(trifluoromethyl) benzamide] |
| 1.4 nM | CNC(=O)c1ccn2c(NC(=O)c3ccc(C(F)(F)F)c(-c4ccn(C)n4)c3)c(-c3ccccc3)nc2c1 [Compound 25, N-methyl-3-({[3-(1-methyl-1H-pyrazol-3-yl)-4-(trifluoromethyl)phenyl]carbonyl}amino)-2-phenylimidazo[1,2-a]pyridine-7-carboxamide] |
| 2.1 nM | Cn1ccc(-c2cc(C(=O)Nc3c(-c4ccccc4)nc4cc(CCO)ccn34)ccc2C(F)(F)F)n1 [Compound 99, N-[7-(2-hydroxyethyl)-2-phenylimidazo[1,2-a]pyridin-3-yl]-3-(1-methyl-1H-pyrazol-3-yl)-4-(trifluoromethyl) benzamide] |
| 0.77 nM | COC(=O)NCc1ccn2c(NC(=O)c3ccc(C(F)(F)F)c(-c4ccn(C)n4)c3)c(-c3ccccc3)nc2c1 [Compound 83, methyl{[3-({[3-(1-methyl-1H-pyrazol-3-yl)-4-(trifluoromethyl)phenyl]carbonyl}amino)-2-phenylimidazo[1,2-a]pyridin-7-yl]methyl}carbamate] |
| 0.92 nM | CC(O)c1ccn2c(NC(=O)c3cc(-c4ncccn4)c(C(F)(F)F)cc3F)c(-c3ccccc3)nc2c1 (single isomer, unassigned) [Compound 58, (R or S)-2-fluoro-N-[7-(1-hydroxyethyl)-2-phenylimidazo[1,2-a]pyridin-3-yl]-5-pyrimidin-2-yl-4-(trifluoromethyl) benzamide] |
| 1.7 nM | COC(=O)NCCc1ccn2c(NC(=O)c3ccc(C(F)(F)F)c(-c4ccn(C)n4)c3)c(-c3ccccc3)nc2c1 [Compound 104, methyl{2-[3-({[3-(1-methyl-1H-pyrazol-3-yl)-4-(trifluoromethyl)phenyl]carbonyl}amino)-2-phenylimidazo[1,2-a]pyridin-7-yl]ethyl}carbamate] |
| 5 nM | Cn1ccc(-c2cc(C(=O)Nc3c(-c4ccccc4)nc4cc(N5CCCC5)ccn34)ccc2C(F)(F)F)n1 [Compound 89, 3-(1-methyl-1H-pyrazol-3-yl)-N-(2-phenyl-7-pyrrolidin-1-ylimidazo[1,2-a]pyridin-3-yl)-4-(trifluoromethyl) benzamide] |
| 169 nM | CNCCc1ccn2c(NC(=O)c3ccc(C(F)(F)F)c(-c4ccn(C)n4)c3)c(-c3ccccc3)nc2c1 [Compound 109, N-{7-[2-(methylamino)ethyl]-2-phenylimidazo[1,2-a]pyridin-3-yl}-3-(1-methyl-1H-pyrazol-3-yl)-4-(trifluoromethyl) benzamide] |
| 17 nM | Cc1cnn(-c2nc3ccccn3c2NC(=O)c2ccc(C(F)(F)F)c(-c3ccn(C)n3)c2)c1 [Compound 13, 3-(1-methyl-1H-pyrazol-3-yl)-N-[2-(4-methyl-1H-pyrazol-1-yl)imidazo[1,2-a]pyridin-3-yl]-4-(trifluoromethyl) benzamide] |
| 1.2 nM | Cn1ccc(-c2cc(C(=O)Nc3c(-c4ccccc4)nc4cc(C(C)(C)O)ccn34)c(Cl)cc2C(F)(F)F)n1 [Compound 70, 2-chloro-N-[7-(1-hydroxy-1-methylethyl)-2-phenylimidazo[1,2-a]pyridin-3-yl]-5-(1-methyl-1H-pyrazol-3-yl)-4-(trifluoromethyl) benzamide] |
| 1920 nM | O=C(Nc1c(-c2ccno2)nc2ccccn12)c1ccc(C(F)(F)F)cc1F [Compound 10, 2-fluoro-N-(2-isoxazol-5-ylimidazo[1,2-a]pyridin-3-yl)-4-(trifluoromethyl) benzamide] |
| 11 nM | O=C(Nc1c(-c2ccccc2)nc2c(F)cccn12)c1ccc(C(F)(F)F)c(-c2cc[nH]n2)c1 [Compound 18, N-(8-fluoro-2-phenylimidazo[1,2-a]pyridin-3-yl)-3-(1H-pyrazol-3-yl)-4-(trifluoromethyl) benzamide] |
| 0.79 nM | C[C@@H](O)c1ccn2c(NC(=O)c3ccc(C(F)(F)F)c(-c4ccn(C)n4)c3)c(-c3ccccc3)nc2c1 (single isomer, unassigned) [Compound 42] |
| 1.8 nM | CC(O)c1ccn2c(NC(=O)c3cc(-c4cc[nH]n4)c(C(F)(F)F)cc3F)c(-c3ccccc3)nc2c1 (single isomer, unassigned) [Compound 74, (R or S)-2-fluoro-N-[7-(1-hydroxyethyl)-2-phenylimidazo[1,2-a]pyridin-3-yl]-5-(1H-pyrazol-3-yl)-4-(trifluoromethyl) benzamide] |
| 6.5 nM | CC(O)c1ccc2[nH]c(-c3ccccc3)c(NC(=O)c3cc(-c4ncccn4)c(C(F)(F)F)cc3F)c2c1 (single isomer, unassigned) [Compound 94, (R or S)-2-fluoro-N-[5-(1-hydroxyethyl)-2-phenyl-1H-indol-3-yl]-5-pyrimidin-2-yl-4-(trifluoromethyl) benzamide] |
| 26 nM | Cc1ccc(C(=O)Nc2c(-c3ccccc3)nc3ccccn23)cc1-c1ccn(C)n1 [Compound 15, 4-methyl-3-(1-methyl-1H-pyrazol-3-yl)-N-(2-phenylimidazo[1,2-a]pyridin-3-yl)benzamide] |
| 58 nM | O=C(Nc1c(-c2ccccc2)nc2ccccn12)c1ccc(C(F)(F)F)c(-c2nc[nH]n2)c1 [Compound 34, N-(2-phenylimidazo[1,2-a]pyridin-3-yl)-3-(1H-1,2,4-triazol-3-yl)-4-(trifluoromethyl) benzamide] |
